The conditions of data set [1]: especially at room temperature; cited from earlier work.
In data set [2] the test system is snoring in a nocturnal breathing obstructed person with GERD. The experiment in a line: Case study of a snoring patient with GERD. It is filed as in vivo, human. The note with it: for beneficial effect on snoring: throughout the subsequent year. An excerpt: A person, 5 feet 3 inches tall and moderately overweight reported a 15-20 year history of progressively increasing snoring. The intensity of their snoring was well documented by their spouse, who experienced disturbed sleep as a result of their spouse's snoring, occasionally requiring them to waken the patient in order for them to obtain relief. The patient gave no history of naso-pharyngeal structural abnormalities or surgery (other than third molar extraction) and had experienced no breathing disorder.
The patient complained to their physician of a chronic scratchiness in their throat, thought to be a result of gastroesophageal reflux disease (GERD). To treat the GERD symptoms, the patient was placed on Prevacid (Lansoprazole) 15 mg once daily.

Data set [3] relates to outpatients with significant snoring. The experiment in a line: Open label study on 8 outpatients with significant snoring. It is filed as in vivo, human. The note with it: 30 mg, 35 to 90 days (mean 61 days). As to the method: An open label study was performed on 8 outpatients with significant snoring. The patients were treated with Prevacid 30 mg. for 30-90 days. The entry criteria were snoring with or without sleep apnea, documented by history, physical exam, and independent sleep lab studies. […] At baseline patients had all been placed on conservative nasal regimen with no improvement in their symptoms. […] At the end of treatment changes in global and spousal ratings of snoring were made along with investigator observations.
The demographics of the study group were eight males no females; a mean age of 50.6 years with a range of 32-70; a mean weight of 206 lbs with a range of 160-260; and there were 6 white, 1 black, and 1 Asian in the group. At baseline the investigator made the diagnosis of GERD in 4 patients. Spousal ratings of snoring were 3 moderate and 5 severe; 4 had moderate or severe sleep apnea; and all 8 had daytime sleepiness.
The duration of treatment ranged from 35 to 90 days with a mean of 61 days. At conclusion of the study, 7 of 8 patients had moderate or marked improvement in snoring. […] 8 of 8 patients had marked improvement in their sleep with less waking and less daytime fatigue.

The conditions of data set [4]: cited from earlier work; for stability in acidic media: acid media.
For data set [5] the following is noted: cited from earlier work.
For data set [6], the system named is heartburn symptoms and lesions caused by heartburn. The settings on record: according to the manufacturer AstraZeneca; cited from earlier work.
For data set [7] the following is noted: +37° C., relative humidity 80%, 6 months; cited from earlier work.

Each structure is given as a SMILES string. Counter-ions that a name gives are not always drawn. Like-named read-outs stand apart in the source and are kept apart here.

Regarding `COc1ccc2[nH]c([S+]([O-])Cc3ncc(C)c(OC)c3C)nc2c1` (stereo not drawn) [Omeprazole form A, omeprazole], the “thermodynamic stability versus omeprazole form B” value in data set [1] is listed as “thermodynamically more stable”.

Take `NC(N)=Nc1nc(CSCCC(N)=NS(N)(=O)=O)cs1` [Pepcid AC (Famotidine), famotidine]: in data set [2], the “beneficial effect on snoring” value is listed as “maintained”.

Take `Cc1c(OCC(F)(F)F)ccnc1C[S+]([O-])c1nc2ccccc2[nH]1` (stereo not drawn) [Prevacid (Lansoprazole), 2-[[[3-methyl-4-(2,2,2-trifluoroethoxy)-2-pyridyl]methyl]sulfinyl]benzimidazole]: in data set [3], the “patients with marked improvement in their sleep with less waking and less daytime fatigue” value is 8 of 8; the “patients with moderate or marked improvement in snoring” value is reported as 7 of 8. Also, the “intensity of the patient's snoring (spouse's observation)” value in data set [2] (15 mg once daily) is on record as “gradual decline”. The throat scratchiness result in data set [2] (15 mg once daily, after beginning treatment) is on record as “declined promptly”. The “benefit on snoring sustained for the duration of dosing” value in data set [2] (15 mg once daily, approximately 12 months) was “moderate to marked benefit”. Further, the “snoring after dosing was interrupted” value in data set [2] (dosing interrupted for several weeks) is “resumption of noticeable snoring intensity”.

Regarding `COCCCOc1ccnc(C[S+]([O-])c2nc3ccccc3[nH]2)c1C` (stereo not drawn) [Rabeprazole sodium, 2-[[[4-(3-methoxypropoxy)-3-methyl-2-pyridinyl]-methyl]sulfinyl]-1H-benzimidazole sodium salt], the “stability in acidic media” value in data set [4] is “rapidly degraded”. The “stability under alkaline conditions” value in data set [4] is reported as “more stable”. The solubility entry is “freely soluble” in data set [5] (chloroform); “freely soluble” in data set [5] (ethanol); “insoluble” in data set [5] (ether); “freely soluble” in data set [5] (ethyl acetate); “very soluble” in data set [5] (methanol); “insoluble” in data set [5] (n-hexane). Besides, in data set [5] (water), the solubility result is recorded as “very soluble”.

For `CN/C(=N/CCSCc1nc[nH]c1C)NC#N` [Tagamet (Cimetidine), cimetidine], the “beneficial effect on snoring” value in data set [2] is “maintained”.

On to `COc1ccc2c(c1)nc([S@@+]([O-])Cc1ncc(C)c(OC)c1C)[n]2[Mg][n]1c([S@@+]([O-])Cc2ncc(C)c(OC)c2C)nc2cc(OC)ccc21.O.O.O` [esomeprazole magnesium, bis(5-methoxy-2-[(S)-[(4-methoxy-3,5-dimethyl-2-pyridinyl)methyl]sulfinyl]-1H-benzimidazole-1-yl) magnesium trihydrate], for which, in data set [4], the “stability in acidic media” value is recorded as “rapidly degrades” and the “stability under alkaline conditions” value is listed as “acceptable stability”. Moreover, in data set [6], the “rates of healing of certain lesions caused by heartburn versus PRILOSEC” value is listed as “higher rates of healing” and the “reduction of heartburn symptoms versus PRILOSEC” value is recorded as “faster”. Besides, in data set [5] (water), the solubility result is “slightly soluble”.

Turning to `COc1ccc2[nH]c([S+]([O-])Cc3ncc(C)c(OC)c3C)nc2c1` (stereo not drawn) [omeprazole, 5-methoxy-2-[[(4-methoxy-3,5-dimethyl-2-pyridinyl)methyl]sulfinyl]-1H-benzimidazole], the “substance converted to degradation products” value in data set [7] was “about 6%”.

The values above are taken from patent publication US20040258621A1, “Method of treating snoring and other obstructive breathing disorders” (priority 2002, published 2004).
